Read-outs that look alike come from different tables or passages of the source.

What all share (test): SelectScreen Kinase Profiling, single point inhibition and IC50 for off-target kinases
Assay type in all cases: biochemical

For test [1], the target named is off-target kinases (Homo sapiens, UniProt O60674). Particulars: ATP Km app, ZLYTE.
Test [2] has as its target off-target kinases (Homo sapiens, UniProt P00519, G250E). Particulars: ABL1 G250E, ATP Km app, ZLYTE.
Test [3] has as its target off-target kinases (Homo sapiens, UniProt P08581, D1228H). Particulars: MET D1228H, LanthaScreen Binding.
The target in test [4] is T1, off-target kinases (Homo sapiens, UniProt Q9H2K8).
T1 sequence (Q9H2K8 1-898): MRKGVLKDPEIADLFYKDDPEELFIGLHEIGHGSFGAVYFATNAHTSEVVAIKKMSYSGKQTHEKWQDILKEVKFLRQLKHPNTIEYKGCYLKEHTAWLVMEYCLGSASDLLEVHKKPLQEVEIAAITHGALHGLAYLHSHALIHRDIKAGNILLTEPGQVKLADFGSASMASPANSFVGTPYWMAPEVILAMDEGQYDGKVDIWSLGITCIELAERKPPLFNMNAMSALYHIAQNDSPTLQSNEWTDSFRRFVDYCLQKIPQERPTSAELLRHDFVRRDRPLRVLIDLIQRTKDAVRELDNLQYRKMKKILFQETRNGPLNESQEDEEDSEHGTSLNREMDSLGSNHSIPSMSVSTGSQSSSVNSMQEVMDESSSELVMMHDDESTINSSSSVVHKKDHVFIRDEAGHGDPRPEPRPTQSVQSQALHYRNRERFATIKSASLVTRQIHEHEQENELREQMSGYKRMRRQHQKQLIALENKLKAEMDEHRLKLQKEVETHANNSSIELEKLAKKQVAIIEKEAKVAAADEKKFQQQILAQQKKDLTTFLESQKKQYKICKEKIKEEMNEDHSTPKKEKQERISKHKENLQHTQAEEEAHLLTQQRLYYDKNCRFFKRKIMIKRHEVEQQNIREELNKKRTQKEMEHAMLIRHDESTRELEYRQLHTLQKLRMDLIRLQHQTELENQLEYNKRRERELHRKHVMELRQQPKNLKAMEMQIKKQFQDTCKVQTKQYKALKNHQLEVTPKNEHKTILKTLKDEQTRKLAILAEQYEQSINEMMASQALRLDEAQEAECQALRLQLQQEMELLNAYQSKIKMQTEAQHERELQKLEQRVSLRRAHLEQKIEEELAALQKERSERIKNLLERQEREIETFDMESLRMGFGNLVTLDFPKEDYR
Particulars: TAOK3 (JIK), LanthaScreen Binding.

Test [5] concerns the target T2, off-target kinases (Homo sapiens, UniProt Q9UBE8).
T2 sequence (Q9UBE8 1-527): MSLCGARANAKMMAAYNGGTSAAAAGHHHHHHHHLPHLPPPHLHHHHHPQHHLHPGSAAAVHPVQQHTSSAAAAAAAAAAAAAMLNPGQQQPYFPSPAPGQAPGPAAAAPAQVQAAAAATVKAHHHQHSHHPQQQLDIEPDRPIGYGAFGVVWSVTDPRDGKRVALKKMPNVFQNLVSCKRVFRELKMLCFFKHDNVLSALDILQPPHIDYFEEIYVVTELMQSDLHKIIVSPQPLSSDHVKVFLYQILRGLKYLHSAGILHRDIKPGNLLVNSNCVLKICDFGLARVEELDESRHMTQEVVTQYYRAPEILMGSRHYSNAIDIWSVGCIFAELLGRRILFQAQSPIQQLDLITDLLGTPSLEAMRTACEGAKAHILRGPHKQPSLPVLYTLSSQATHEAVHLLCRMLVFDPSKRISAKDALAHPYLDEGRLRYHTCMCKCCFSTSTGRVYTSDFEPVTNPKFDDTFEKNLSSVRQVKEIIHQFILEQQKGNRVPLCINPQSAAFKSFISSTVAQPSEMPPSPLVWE
The following applies: NLK, LanthaScreen Binding.

Chain of off-target kinases (Homo sapiens, UniProt O60674) (O60674 whole entry): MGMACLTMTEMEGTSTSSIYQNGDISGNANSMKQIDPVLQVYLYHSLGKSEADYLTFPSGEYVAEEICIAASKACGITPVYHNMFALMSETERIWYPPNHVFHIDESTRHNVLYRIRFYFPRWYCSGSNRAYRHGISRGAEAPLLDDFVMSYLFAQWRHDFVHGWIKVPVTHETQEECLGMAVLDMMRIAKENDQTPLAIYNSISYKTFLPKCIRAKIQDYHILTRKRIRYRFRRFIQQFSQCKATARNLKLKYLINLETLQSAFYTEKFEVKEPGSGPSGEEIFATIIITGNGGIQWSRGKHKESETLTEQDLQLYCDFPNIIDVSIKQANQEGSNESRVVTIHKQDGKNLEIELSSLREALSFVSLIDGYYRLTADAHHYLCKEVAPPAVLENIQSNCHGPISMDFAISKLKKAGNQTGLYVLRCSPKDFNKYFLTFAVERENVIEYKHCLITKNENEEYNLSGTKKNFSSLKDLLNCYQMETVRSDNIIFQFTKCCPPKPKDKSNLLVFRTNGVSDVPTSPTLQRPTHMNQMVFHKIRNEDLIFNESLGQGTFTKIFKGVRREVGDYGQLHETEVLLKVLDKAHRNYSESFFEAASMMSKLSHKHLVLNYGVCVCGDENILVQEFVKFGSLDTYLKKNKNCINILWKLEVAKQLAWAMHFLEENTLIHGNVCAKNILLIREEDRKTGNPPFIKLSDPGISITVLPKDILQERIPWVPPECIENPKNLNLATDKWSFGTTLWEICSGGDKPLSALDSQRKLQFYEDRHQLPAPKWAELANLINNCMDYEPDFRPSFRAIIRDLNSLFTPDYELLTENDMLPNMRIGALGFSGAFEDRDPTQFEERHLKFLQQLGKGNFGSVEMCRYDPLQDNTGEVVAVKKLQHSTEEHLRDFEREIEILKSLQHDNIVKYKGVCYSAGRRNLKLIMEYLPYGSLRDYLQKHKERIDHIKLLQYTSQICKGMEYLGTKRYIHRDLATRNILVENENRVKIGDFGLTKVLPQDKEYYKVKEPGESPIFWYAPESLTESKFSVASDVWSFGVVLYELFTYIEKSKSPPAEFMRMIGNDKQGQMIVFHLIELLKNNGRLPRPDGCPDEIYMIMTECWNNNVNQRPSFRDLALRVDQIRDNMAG
Chain of off-target kinases (Homo sapiens, UniProt P08581, D1228H) (P08581 25-1390 D1228H): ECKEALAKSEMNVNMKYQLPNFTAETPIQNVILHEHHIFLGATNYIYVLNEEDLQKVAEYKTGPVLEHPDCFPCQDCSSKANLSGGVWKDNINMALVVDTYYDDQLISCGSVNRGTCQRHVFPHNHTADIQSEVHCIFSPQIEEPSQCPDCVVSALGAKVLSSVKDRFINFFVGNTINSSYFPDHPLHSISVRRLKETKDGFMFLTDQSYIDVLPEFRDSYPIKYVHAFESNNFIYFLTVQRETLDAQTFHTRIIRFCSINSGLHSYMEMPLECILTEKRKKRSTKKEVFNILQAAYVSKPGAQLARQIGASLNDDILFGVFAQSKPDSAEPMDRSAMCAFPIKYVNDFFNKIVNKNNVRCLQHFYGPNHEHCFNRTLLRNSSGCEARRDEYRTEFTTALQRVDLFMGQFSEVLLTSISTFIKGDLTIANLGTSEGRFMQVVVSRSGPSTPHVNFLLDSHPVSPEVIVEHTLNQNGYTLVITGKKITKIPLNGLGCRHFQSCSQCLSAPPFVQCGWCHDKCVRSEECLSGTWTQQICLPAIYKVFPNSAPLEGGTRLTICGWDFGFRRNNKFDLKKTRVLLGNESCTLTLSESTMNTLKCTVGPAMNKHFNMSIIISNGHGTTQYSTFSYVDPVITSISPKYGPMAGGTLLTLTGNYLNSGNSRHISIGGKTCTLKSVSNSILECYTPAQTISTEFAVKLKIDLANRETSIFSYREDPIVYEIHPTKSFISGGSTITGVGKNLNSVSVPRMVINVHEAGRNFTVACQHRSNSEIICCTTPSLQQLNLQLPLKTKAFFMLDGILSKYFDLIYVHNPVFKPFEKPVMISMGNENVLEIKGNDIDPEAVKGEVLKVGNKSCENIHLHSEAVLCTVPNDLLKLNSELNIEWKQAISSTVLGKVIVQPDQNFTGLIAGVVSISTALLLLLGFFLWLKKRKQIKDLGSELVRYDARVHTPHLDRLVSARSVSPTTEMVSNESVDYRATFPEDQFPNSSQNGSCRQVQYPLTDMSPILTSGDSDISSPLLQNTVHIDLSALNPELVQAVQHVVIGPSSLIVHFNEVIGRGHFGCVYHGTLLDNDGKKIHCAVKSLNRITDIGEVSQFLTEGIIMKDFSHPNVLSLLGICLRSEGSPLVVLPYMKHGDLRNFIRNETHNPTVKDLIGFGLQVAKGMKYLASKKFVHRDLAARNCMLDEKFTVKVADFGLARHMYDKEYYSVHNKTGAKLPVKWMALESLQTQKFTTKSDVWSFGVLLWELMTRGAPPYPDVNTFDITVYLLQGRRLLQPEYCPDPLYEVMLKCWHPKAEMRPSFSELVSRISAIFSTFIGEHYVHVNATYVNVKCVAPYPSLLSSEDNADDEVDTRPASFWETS

Regarding `N#Cc1cc(-c2ncnc(Nc3ccc(N4CCN(C5COC5)CC4)cc3)n2)ccc1OC1CCOCC1` [Compound 1, 5-(4-((4-(4-(oxetan-3-yl)piperazin-1-yl)phenyl)amino)-1,3,5-triazin-2-yl)-2-((tetrahydro-2H-pyran-4-yl)oxy)benzonitrile], the inhibition on off-target kinases [1] (JAK2, read-out: % Inhibition 1) came to 67%; at off-target kinases [1] (JAK2, read-out: % Inhibition 2), 68%; on off-target kinases [1] (JAK2, read-out: % Inhibition Avg), 67%; on off-target kinases [1] (JAK2 JH1 JH2, read-out: % Inhibition 1) it was 46%; on off-target kinases [1] (JAK2 JH1 JH2, read-out: % Inhibition 2), 47%; on off-target kinases [1] (JAK2 JH1 JH2, read-out: % Inhibition Avg) it was 46%. In addition, the inhibition at off-target kinases [2] (read-out: % Inhibition 1) came out at 60%; on off-target kinases [2] (read-out: % Inhibition 2), 61%; on off-target kinases [2] (read-out: % Inhibition Avg), 60%; at off-target kinases [3] (read-out: % Inhibition 1), 46%; at off-target kinases [3] (read-out: % Inhibition 2), 48%; at off-target kinases [3] (read-out: % Inhibition Avg), 47%. Moreover, the inhibition is 3% on off-target kinases [4] (read-out: % Inhibition 1); 1% at off-target kinases [4] (read-out: % Inhibition 2); 2% on off-target kinases [4] (read-out: % Inhibition Avg); 26% at off-target kinases [5] (read-out: % Inhibition 1); 29% on off-target kinases [5] (read-out: % Inhibition 2); 28% on off-target kinases [5] (read-out: % Inhibition Avg).
